These results are taken from patent publication US20130180014A1, “Pyridine Compounds for Controlling Invertebrate Pests III” (BASF SE, priority 2010, published 2013).

Bounds are passed on as bounds.

What all share (assay type): in vivo
In test [1] the test system is Myzus persicae. In words: Green peach aphid, systemic, artificial diet under membrane in 96-well plate. The conditions noted are these: 72 h, 3 days, in comparison with untreated controls. The text has this:
For evaluating control of green peach aphid (Myzus persicae) through systemic means the test unit consisted of 96-well-microtiter plates containing liquid artificial diet under an artificial membrane.
The compounds were formulated using a solution containing 75% vol/vol water and 25% vol/vol DMSO. Different concentrations of formulated compounds were pipetted into the aphid diet, using a custom built pipetter, at two replications. After application, 5 to 8 adult aphids were placed on the artificial membrane inside the microtiter plate wells. The aphids were then allowed to suck on the treated aphid diet and incubated at about 23+1° C. and about 50+5% relative humidity for 3 days. Aphid mortality and fecundity was then visually assessed.

Test [2] concerns Aphis craccivora. In words: Cowpea aphid, spray on potted cowpea plants. Conditions: cowpea plants sprayed, assessed after 24, 72 and 120 hours, in comparison with untreated controls. Here is the method: The active compounds were formulated in 50:50 (vol/vol) acetone:water. The test solution was prepared at the day of use.
Potted cowpea plants colonized with 100-150 aphids of various stages were sprayed after the pest population had been recorded. Population reduction was assesed after 24, 72, and 120 hours.

Test [3] deals with Aphis gossypii. In words: Cotton aphid, mixed life stages, method a) cotyledon dip. The conditions noted are these: cotton cotyledons dipped, in comparison with untreated controls. The text has this: (§1) The active compounds were formulated in 50:50 (vol/vol) acetone:water and 100 ppm Kinetica™ surfactant.
Cotton plants at the cotyledon stage (one plant per pot) were infested by placing a heavily infested leaf from the main colony on top of each cotyledon. The aphids were allowed to transfer to the host plant overnight, and the leaf used to transfer the aphids was removed. The cotyledons were dipped in the test solution and allowed to dry. After days, mortality counts were made.

Test [4] deals with Megoura viciae. In words: Vetch aphid, bean leaf disk in microtiterplate. The conditions noted are these: foliar, 144 h, test solution 2500 mg/L, leaf disks sprayed with 2.5 μl, 6 days. Here is the method:
The active compounds were formulated in 1:3 (vol/vol) DMSO:water with different concentrations of formulated compounds.
Bean leaf disks were placed into microtiterplates filled with 0.8% agar-agar and 2.5 ppm OPUS™. The leaf disks were sprayed with 2.5 μl of the test solution and 5 to 8 adult aphids were placed into the microtiterplates which were then closed and kept at 23±1° C. and 50±5% relative humidity under fluorescent light for 6 days. Mortality was assessed on the basis of vital, reproduced aphids. Aphid mortality and fecundity was then visually assessed.

The test system of test [5] is Myzus persicae. In words: Green peach aphid, mixed life stages, method a) pepper leaf dip. Conditions: foliar, 120 h, pepper leaves dipped, after 5 days, in comparison with untreated controls.
Source text: as §1
Pepper plants in the 2nd leaf-pair stage (variety ‘California Wonder’) were infested with approximately 40 laboratory-reared aphids by placing infested leaf sections on top of the test plants. The leaf sections were removed after 24 hr. The leaves of the intact plants were dipped into gradient solutions of the test compound and allowed to dry. Test plants were maintained under fluorescent light (24 hour photoperiod) at about 25° C. and 20-40% relative humidity. Aphid mortality on the treated plants, relative to mortality on check plants, was determined after 5 days.

In general, mortality refers to the share of the test organisms that died. Read a high mortality as a strong lethal effect. For `O=C(Nc1cccnc1)c1cncc(C(F)(F)F)c1` [Example 18, N-Pyridin-3-yl-5-trifluoromethylnicotinamide], the mortality at 2500 ppm in test [1] was 100%. For the same compound, the mortality at 300 ppm was not below 90% in test [2], not below 75% in test [3] and not below 90% in test [5]. In test [4], this compound gave a mortality at 2500 µg/mL not below 90%.
